Laboratory results as given in US20140221207A1, “ISOLATED BACTERIAL STRAIN OF THE GENUS BURKHOLDERIA AND PESTICIDAL METABOLITES THEREFROM- FORMULATIONS AND USES” (MARRONE BIO INNOVATIONS, INC., priority 2011, published 2014).
“And” between values parts separate entries of the source, which are not always exact repeats. Equal entries are not always repeated. Where two headings read alike, the source gives them in different places.

Key:
Burkholderia A396 = type: cell-based, Burkholderia sp. A396; conditions: 72-hour incubation at 25° C
Experimental: Antibiotic susceptibility of Burkholderia A396 is tested using antibiotic disks on Muller-Hinton medium as described in PML Microbiological's technical data sheet #535.

B. cepacia complex = conditions: 2,621 strains in B. cepacia complex; cited from earlier work
[1] = tested on: Chlamydomonas reinhardtii; assay: Control of Chlamydomonas reinhardtii by purified compounds, fluorescence at 680 nm; type: cell-based; conditions: 72 hours
Experimental: Purified compounds from Burkholderia sp. fermentation broth was tested for algaicidal activity against Chlamydomonas reinhardtii. An increasing volume of the purified compounds (20 mg/mL in ethanol) was added to a clear 48 well polystyrene plate with 750 micro liters of the specified algae growing. Each treatment was done in two replicates and the solvent used as a negative control. The plate was closed with a lid and incubated for 72 hours under constant light at room temperature. After 72 hours the fluorescence (at 680 nm) of the suspension in each well was measured using a SpectraMax M2 plate reader, and the reduction in fluorescence compared with the negative control was converted into percent control of algal growth. Each sample was visually compared to the negative control; a well that was visually clearer than the negative control was scored as active. […] Tests were run in two replicates and %. Control was calculated as a reduction of fluorescence at 680 nm compared with the negative control. Each sample was visually compared to the negative control; a well that was visually clearer than the negative control was scored as active.

Lygus hesperus = assay: 12 well plate treated green beans bioassay, Lygus hesperus late 2nd/early 3rd instar; type: in vivo; conditions: green beans dipped in 0.25 mg/mL, scored at 24, 48 and 120 hours
Experimental: The insecticidal activity of the four compounds, templamide A, templamide B, FR901465 & FR901228 isolated from Burkholderia were tested in a laboratory assay using a 12 well plate with treated green beans bioassay system. The compound was dissolved in 100% ethanol to concentrations of […] and 500 μL of this sample was added to 3.5 mL of water to make a total volume of 4 mL containing 0.25 mg/mL concentration of the compound. Green beans were washed earlier in bleach solution and then sat in water to rinse. Beans were dried before using and then were cut with scissors to fit into wells of 12-well plate. With the help of forceps the beans were dunked into a 15 mL plastic falcon tube containing each treatment and then submerged in treatment for exactly one min. one bean part was put into each well and then individual late 2nd/early 3rd instar Lygus hesperus, were placed in wells with help of brush. Plate sealer was used to cover tray and hole poked into the plate sealer for aeration. The numbers of Lygus/well were counted and plates were placed on brench top. Larvae were scored at 24, 48 and 120 hours after application. […] The positive control used in this testing was Avid (Avemectin) at the rate of 13 μL/10 mL.

[2] = tested on: Two Spotted Spidermite (TSM); assay: Control of two spotted spidermite (TSM) in strawberry, field data; type: in vivo; conditions: 6 oz./acre
Experimental: The efficacies of five traditional chemistry-derived and MBI 206 were evaluated for TSM control under field conditions. ‘Strawberry Festival’ transplants were set in the field in plastic mulched beds, 13 inches high and 27 inches across the top, and with 4 ft bed spacing. Overhead irrigation was applied for 10 days after setting to aid in establishment of the transplants. Trickle irrigation was used for the remainder of the experiment. Each 12.5-ft. plot consisted of 20 plants in two ten-plant rows per bed. Plots were infested from a laboratory colony in four sessions with 10 to 20 motile TSM, per plant. Each session accomplished the infestation of one block of the experiment. The experiment consisted of treatments of various rates and schedules of application of miticides, some combined with an adjuvant, and a non-treated check. Treatments were replicated four times in a RCB design. Savey and Acramite treatments were applied before TSM densities reached threshold levels (6 January); the remainder of the treatment programs began 2 wks later. Treatments were applied using a hand-held sprayer with a spray wand outfitted with a nozzle containing a 45-degree core and a number four disc.
The sprayer was pressurized by CO2, to 40 psi, and calibrated to deliver 100 gal per acre. Pre-treatment samples were taken on Day 1 and sampling continued weekly through 2 wks after the last application of treatments. Samples consisted of ten randomly selected leaflets per plot and were collected from the middle one-third stratum of the plants. Samples were transported to the laboratory where motile and egg TSM were brushed from the leaflets onto rotating sticky discs and counted on 1/10 of the disc surface to estimate average numbers per leaflet. Distinctions could not be made between viable and non-viable eggs, thus total eggs were recorded.

[3] = 5 μL of sample (20 mg/mL in ethanol) per 750 μL of algae
[4] = 5 μL of sample per 750 μL of algae
[5] = 11 μL of sample (20 mg/mL in ethanol) per 750 μL of algae
[6] = 11 μL of sample per 750 μL of algae
[7] = 22.5 μL of sample (20 mg/mL in ethanol) per 750 μL of algae
[8] = 22.5 μL of sample per 750 μL of algae, well visually clearer than negative control scored as active

CC1(C)S[C@@H]2[C@H](NC(=O)[C@H](N)c3ccccc3)C(=O)N2[C@H]1C(=O)O [Ampicillin]
Susceptible (Burkholderia A396; disk 10 μg): −

CO/N=C(\C(=O)N[C@@H]1C(=O)N2C(C(=O)O)=C(COC(N)=O)CS[C@H]12)c1ccco1 [Cefuroxime]
Susceptible (Burkholderia A396; disk 30 μg): −

O=C(N[C@H](CO)[C@H](O)c1ccc([N+](=O)[O-])cc1)C(Cl)Cl [Chloramphenicol]
Susceptible (Burkholderia A396; disk 30 μg): ++ | share of strains susceptible (B. cepacia complex): 15%

O=C(O)c1cn(C2CC2)c2cc(N3CCNCC3)c(F)cc2c1=O [Ciprofloxacin]
Susceptible (Burkholderia A396; disk 5 μg): ++ | share of strains susceptible (B. cepacia complex): 5%

CC[C@H]1OC(=O)[C@H](C)[C@@H](O[C@H]2C[C@@](C)(OC)[C@@H](O)[C@H](C)O2)[C@H](C)[C@@H](O[C@@H]2O[C@H](C)C[C@H](N(C)C)[C@H]2O)[C@](C)(O)C[C@@H](C)C(=O)[C@H](C)[C@@H](O)[C@]1(C)O [Erythromycin]
Susceptible (Burkholderia A396; disk 15 μg): −

C[C@@H](O)[C@H]1C(=O)N2C(C(=O)O)=C(SCCN=CN)C[C@H]12 [Imipenem]
Susceptible (Burkholderia A396; disk 10 μg): +++

NC[C@H]1O[C@H](O[C@H]2[C@H](O)[C@@H](O[C@H]3O[C@H](CO)[C@@H](O)[C@H](N)[C@H]3O)[C@H](N)C[C@@H]2N)[C@H](O)[C@@H](O)[C@@H]1O [Kanamycin]
Susceptible (Burkholderia A396; disk 30 μg): +++

CN(C)[C@@H]1C(O)=C(C(N)=O)C(=O)[C@@]2(O)C(O)=C3C(=O)c4c(O)cccc4[C@@](C)(O)[C@H]3[C@H](O)[C@@H]12 [Oxytetracycline]
Susceptible (Burkholderia A396; disk 30 μg): −

CCN1CCN(C(=O)N[C@@H](C(=O)N[C@@H]2C(=O)N3[C@@H]2SC(C)(C)[C@@H]3C(=O)O)c2ccccc2)C(=O)C1=O [Piperacillin]
Susceptible (Burkholderia A396; disk 100 μg): +++

[H]/N=C(/N)N[C@H]1[C@H](O)[C@@H](O)[C@H](O[C@@H]2O[C@@H](C)[C@](O)(C=O)[C@H]2O[C@@H]2O[C@@H](CO)[C@H](O)[C@@H](O)[C@@H]2NC)[C@@H](N/C(N)=N\[H])[C@@H]1O [Streptomycin]
Susceptible (Burkholderia A396; disk 10 μg): −

CCC(=O)OC(C)/C=C\C(=O)NC1CC(C)C(C/C=C(C)/C=C/C2OC(C)(O)C(O)C(O)(CO)C2O)OC1C (centres unmarked) [Templamide A]
% Control [1, 3]: −67.61% | Visual [1, 4]: Not Active | % Control [1, 5]: −21.16% | Visual [1, 6]: Not Active | % Control [1, 7]: −151.6% | Visual [1, 8]: Not Active | mortality (Lygus hesperus): inactive

CCC(=O)OC(C)/C=C\C(=O)NC1CC(C)C(C/C=C(C)/C=C/C2OC(C)(O)C(O)C3(CO3)C2O)OC1C (centres unmarked) [Templamide B]
% Control [1, 3]: 95.05% | Visual [1, 4]: Active | % Control [1, 5]: 99.34% | Visual [1, 6]: Active | % Control [1, 7]: 98.3% | Visual [1, 8]: Active | mortality at 250 µg/mL (Lygus hesperus; Lygus hesperus): 69.2%

COC(=O)c1nc(CC(C)C)oc1-c1c[nH]c2ccccc12 [Templazole A, templazole A]
% Control [1, 3]: 99.18% and 98.69% | Visual [1, 4]: Active | % Control [1, 5]: 98.73% and 98.31% | Visual [1, 6]: Active | % Control [1, 7]: 98.15% and 95.71% | Visual [1, 8]: Active

CN(C)[C@@H]1C(O)=C(C(N)=O)C(=O)[C@@]2(O)C(O)=C3C(=O)c4c(O)cccc4[C@@](C)(O)[C@H]3C[C@@H]12 [Tetracycline]
Susceptible (Burkholderia A396; disk 30 μg): −

C[C@@H]1[C@@H](c2ccc(Cl)cc2)SC(=O)N1C(=O)NC1CCCCC1 [hexythiazox]
No. egg TSM/leaflet ([2]; Day 1 (pre-treatment sample)): 2 | No. egg TSM/leaflet ([2]; Day 9): 8.5 | No. egg TSM/leaflet ([2]; Day 16): 15 | No. egg TSM/leaflet ([2]; Day 22): 17 | No. egg TSM/leaflet ([2]; Day 30): 22 | No. egg TSM/leaflet ([2]; Day 37): 71.5 | No. egg TSM/leaflet ([2]; Day 44): 128.5 | No. egg TSM/leaflet ([2]; Day 52): 281.5 | No. egg TSM/leaflet ([2]; Day 58): 393.5

Gentamicin
Susceptible (Burkholderia A396; disk 10 μg): −

Penicillin
Susceptible (Burkholderia A396; disk 10 μg): −

templazole B
% Control [1, 3]: −102.1% | Visual [1, 4]: Not Active | % Control [1, 5]: 52.95% | Visual [1, 6]: Not Active | % Control [1, 7]: −30.79% | Visual [1, 8]: Not Active
